From patent US8952030B2, “Morphinan derivative” (priority 2011, dated 2015) come the findings set out here.

Read-outs that look alike come from different tables or passages of the source.

The target of one assay is T1, opioid μ receptor (Homo sapiens, UniProt P35372).
T1 construct: expressed in transfected cells; host or cells: CHO cells
Briefly: Opioid receptor functional test (Lance Ultra cAMP Kit), μ receptor agonist activity. Format: cell-based. To be noted: hydrochloride was used; for Emax at 10 µM: maximum concentration (10 μM), reaction did not reach the maximum, EC50 N.C., relative to DAMGO, read-out: μ Receptor responce rate at the maximum concentration (reference value). As for the experimental part: (§1) Functional activities of the compounds of the present invention for the μ, […], and κ opioid receptors were investigated.
(§2) The test was performed according to a prescribed method by using Lance Ultra cAMP Kit (Perkin-Elmer). The agonist activities were evaluated as follows. The CHO cells expressing each opioid receptor (μ, δ, or κ) and a test compound were reacted in an assay buffer (1×HBSS, […], pH 7.4, […] IBMX (isobutylmethylxanthine), 7.5% BSA) for 30 minutes in the presence of 10 μM forskolin. Then, the cAMP detection reagent included in the kit was added, and after 1 hour, time-resolved fluorescence measurements were performed by using the EnVision plate reader (Perkin-Elmer). A dose-responce curve of the test compound was obtained from fluorescence values measured at 665 nm, and EC50 value and Emax value were calculated. The Emax value was calculated as a ratio of the maximum responce of the test compound with respect to the maximum responce of each control agent (SNC80 for δ, DAMGO for μ, U-69593 for κ) taken as 100%.
(§3) 1): Hydrochloride was used.

The test system of the next assay is ICR male mice. Briefly: Analgesic activity (acetic acid writhing method). Format: in vivo. Particulars: Mus musculus, sc; 3 mg/kg subcutaneous, 0.6% acetic acid i.p., writhing inhibition rate vs solvent group; hydrochloride was used; read-out: Inhibitory activities against writhing. As to the method: ICR male mice were used as groups each consisting of eight mice. Twenty minutes after the subcutaneous administration of a test compound (3 mg/kg), a 0.6% aqueous solution of acetic acid was intraperitoneally administered (0.1 mL/10 g body weight), and from the point 5 minutes after the administration, number of writhing observed over 20 minutes was counted. The analgesic activity was evaluated on the basis of the writhing inhibition rate (% inhibition) of the test compound administration group with respect to the writhing number of the solvent administration group.
1): Hydrochloride was used. 2): The evaluation results of the inhibitory activities against writhing were classified on the basis of the inhibition rate as follows. ≧90%, +++; 70≦%<90, ++; 50≦%<70, +
A general note: An intraperitoneal irritant provokes the stretching counted in writhing tests.

The next assay has as its target T2, opioid δ receptor (Homo sapiens, UniProt P41143).
T2 construct: expressed in transfected cells; host or cells: CHO cells
Briefly: Opioid receptor functional test (Lance Ultra cAMP Kit), δ receptor agonist activity. It is filed as cell-based. To be noted: for Emax: read-out: δ Receptor Emax. As to the method: as §1, §2, §3

In a further assay the target is T3, opioid κ receptor (Homo sapiens, UniProt P41145).
T3 construct: expressed in transfected cells; host or cells: CHO cells
Briefly: Opioid receptor functional test (Lance Ultra cAMP Kit), κ receptor agonist activity. It is filed as cell-based. Particulars: hydrochloride was used; for EC50: CHO cells expressing κ opioid receptor, 10 μM forskolin, cAMP, read-out: κ Receptor EC50 value; for Emax: maximum response relative to U-69593 taken as 100%, read-out: κ Receptor Emax; for Emax at 10 µM: maximum concentration (10 μM), reaction did not reach the maximum, EC50 N.C., relative to U-69593, read-out: κ Receptor responce rate at the maximum concentration (reference value). As for the experimental part: as §1, §2, §3

The mark [1] stands for this setting: CHO cells expressing δ opioid receptor, 10 μM forskolin, cAMP, hydrochloride was used, read-out: δ Receptor EC50 value.
[2] abbreviates: maximum response relative to SNC80 taken as 100%, hydrochloride was used.

T1 sequence (P35372 whole entry): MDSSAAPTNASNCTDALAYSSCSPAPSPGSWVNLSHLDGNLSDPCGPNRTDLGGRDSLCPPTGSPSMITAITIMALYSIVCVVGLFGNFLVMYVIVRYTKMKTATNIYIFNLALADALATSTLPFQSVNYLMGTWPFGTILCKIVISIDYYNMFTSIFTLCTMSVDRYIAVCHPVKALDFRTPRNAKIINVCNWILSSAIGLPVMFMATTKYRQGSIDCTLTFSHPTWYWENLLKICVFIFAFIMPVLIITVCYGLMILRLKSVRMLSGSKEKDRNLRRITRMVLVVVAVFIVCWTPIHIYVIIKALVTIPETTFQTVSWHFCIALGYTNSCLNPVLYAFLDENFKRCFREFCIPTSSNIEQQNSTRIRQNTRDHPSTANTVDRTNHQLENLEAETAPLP
T3 sequence (P41145 whole entry): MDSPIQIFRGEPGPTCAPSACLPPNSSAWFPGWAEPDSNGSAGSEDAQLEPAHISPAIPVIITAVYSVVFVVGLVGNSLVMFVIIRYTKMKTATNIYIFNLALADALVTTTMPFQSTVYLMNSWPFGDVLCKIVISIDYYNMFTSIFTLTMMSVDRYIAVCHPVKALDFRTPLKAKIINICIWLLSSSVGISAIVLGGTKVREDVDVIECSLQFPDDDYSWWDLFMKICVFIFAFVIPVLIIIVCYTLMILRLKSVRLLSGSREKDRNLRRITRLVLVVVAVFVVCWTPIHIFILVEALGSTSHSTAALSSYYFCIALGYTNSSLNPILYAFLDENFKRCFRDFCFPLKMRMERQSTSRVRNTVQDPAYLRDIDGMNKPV
T2 sequence (P41143 whole entry): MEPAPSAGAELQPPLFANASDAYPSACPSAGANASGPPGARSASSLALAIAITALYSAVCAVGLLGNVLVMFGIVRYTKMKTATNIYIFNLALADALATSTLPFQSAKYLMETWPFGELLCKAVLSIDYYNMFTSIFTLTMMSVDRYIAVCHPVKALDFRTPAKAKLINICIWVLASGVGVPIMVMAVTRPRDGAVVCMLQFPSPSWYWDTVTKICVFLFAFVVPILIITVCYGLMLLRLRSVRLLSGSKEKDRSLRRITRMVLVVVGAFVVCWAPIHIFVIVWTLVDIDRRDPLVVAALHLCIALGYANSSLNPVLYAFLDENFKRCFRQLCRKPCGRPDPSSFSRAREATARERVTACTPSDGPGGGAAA

One may read the EC50 as the concentration at which the effect is half-maximal. For the compound `CC(C)NC(=O)N1C[C@H]2CC34CCC1C2C31CCN(CC2CC2)C4Cc2ccc(O)cc21` (some centres unmarked) [Compound 159], the Emax at 10 µM on opioid μ receptor was found to be 2.8%. Further, the inhibition in vivo at 3 mg/kg in the assay with ICR male mice is 70 to 90%. Further, the EC50 at opioid δ receptor (setting [1]) and on opioid κ receptor was less than 1 nM throughout. The Emax on opioid δ receptor (setting [2]) came out at 76%; on opioid κ receptor it was 37%.
For the compound `O=C(c1cccc(Cl)c1)N1C[C@H]2C[C@@]34CC[C@@H]1[C@@H]2[C@@]31CCN(CC2CC2)[C@@H]4Cc2ccc(O)cc21` [Compound 79, (3-chlorophenyl)[(1S,3aR,5aS,6R,11bR,11cS)-14-(cyclopropylmethyl)-10-hydroxy-1,2,3a,4,5,6,7,11c-octahydro-3H-6,11b-(iminoethano)-1,5a-methanonaphtho[1,2-e]indol-3-yl]methanone], the Emax at 10 µM came out at 8.8% on opioid μ receptor and 9.6% on opioid κ receptor. In the assay on ICR male mice, the inhibition in vivo at 3 mg/kg is 70 to 90%. The EC50 at opioid δ receptor (setting [1]) was less than 1 nM. The Emax at opioid δ receptor (setting [2]) came to 75%.
Consider `O=C(c1ccccc1)N1C[C@H]2C[C@@]34CC[C@@H]1[C@@H]2[C@@]31CCN(CC2CC2)[C@@H]4Cc2ccc(O)cc21` [Compound 78, [(1S,3aR,5aS,6R,11bR,11cS)-14-(cyclopropylmethyl)-10-hydroxy-1,2,3a,4,5,6,7,11c-octahydro-3H-6,11b-(iminoethano)-1,5a-methanonaphtho[1,2-e]indol-3-yl](phenyl)methanone], for which the Emax at 10 µM at opioid μ receptor is 4.7%. In the assay with ICR male mice, the inhibition in vivo at 3 mg/kg fell in the range of 50 to 70%. Besides, at opioid δ receptor, the EC50 is less than 1 nM and the Emax turned out to be 83%. In addition, at opioid κ receptor, the Emax at 10 µM was determined as 5.5%.
In the case of `O=C(c1ccccc1)N1C[C@H]2C[C@@]34CCC1C2[C@@]31CCN(CC2CC2)[C@@H]4Cc2ccccc21` (stereo partly drawn) [Compound 298, [(1S,5aS,6R,11bR)-14-(Cyclopropylmethyl)-4,5,6,7-tetrahydro-1H-6,11b-(iminoethano)-1,5a-methanonaphtho[1,2-e]indol-3(2H,3aH,11cH)-yl](phenyl)methanone], the EC50 on opioid μ receptor (CHO cells expressing μ opioid receptor, 10 μM forskolin, cAMP) is greater than 50 nM; on opioid δ receptor (setting [1]), less than 10 nM; on opioid κ receptor, greater than 100 nM. Besides, the Emax on opioid μ receptor (maximum response relative to DAMGO taken as 100%, read-out: μ Receptor Emax) was determined as 16%; at opioid δ receptor (setting [2]), 102%; on opioid κ receptor, 32%. Besides, the inhibition in vivo at 3 mg/kg with ICR male mice was no less than 90%.
